Read-outs that look alike come from different tables or passages of the source.
Columns and labels:
LasB = target: T1, LasB (Pseudomonas aeruginosa, UniProt P14756); assay: Elastin assay to determine % inhibition (Elastin Congo-Red, dialysed culture supernatant); assay type: biochemical, P. aeruginosa PAO1; settings: read-out: Elastin hydrolysis % inhibition @ 50 / 25 µM inhibitor concentration
T1 construct: uses as source of enzyme dialysed supernatant from P. aeruginosa PAO1; endogenous in cells; host or cells: P. aeruginosa PAO1 culture supernatant, filtered and dialysed
Experimental: (§1) Experiments were therefore conducted (1) to measure the potency of inhibition of compounds of the invention against purified Pseudomonas aeruginosa LasB enzyme and also experiments were conducted (2) to measure the ability of compounds of the invention to inhibit LasB-catalysed elastin degradation. The first assay uses a commercial fluorescent synthetic peptide and purified LasB enzyme. The LasB hydrolysis kinetics are measured allowing the determination of the IC50 and Ki of the inhibitors; the second is a more physiological assay using dialysed Pseudomonas aeruginosa supernatant as source of enzyme, plus its natural substrate Elastin. It is an "end point assay" that determines the percentage of LasB inhibition by each compound for one particular time point and inhibitor concentration. Technical details are described below:
The Elastin assay uses as source of enzyme dialysed supernatant from P. aeruginosa PAO1 and the Elastin Congo-Red as substrate. The natural LasB substrate, elastin, is complexed with the congo-red dye (Elastin Congo-Red, ECR). The elastolysis activity from the culture supernatant will degrade elastin and release the congo-red dye into the supernatant. This red dye release can be measured with a spectrophotometer.
Method: To determine LasB elastase activity and assess compound inhibition, an overnight culture of P. aeruginosa strain PAO1 is diluted in LB medium. After reaching an OD600nm of 0.6, this culture is diluted and incubated for additional 18-24 hours in a shaking incubator. Culture supernatants are recovered by centrifugation and filtrated through a […] filter. These supernatants are dialysed (filtration molecules < 20kDa) into a 50 mM Tris-HCl pH 7.4, 2.5 mM CaCl2 solution at 4°C under agitation for 24 hours. Supernatant dialysed is then mixed volume/volume with the ECR suspension (20 mg/mL of ECR in 100 mM Tris-HCl pH 7.4 buffer supplemented with 1 mM CaCl2) supplemented with Triton X100 (final concentration of 0.01%) in presence of DMSO (positive control) and/or different concentrations of compound (routinely 50 to 1.56 µM). As a negative control, the dialysed supernatant is replaced by Tris-HCl solution (50 mM Tris-HCl pH 7.4, 2.5 mM CaCl2). The mixed reaction is then incubated overnight in a 37°C shaking incubator. The reaction supernatant is recovered by centrifugation and the release of congo-red is measured by its absorbance at 495 nm (OD495nm).
Percentage inhibition is determined using the following equation: ((OD495nmvalue of positive control−OD495nmvalue of negative control)−(OD495nmvalue of treated supernatant−OD495nmvalue of positive control))/(OD495nmvalue of positive control−OD495nmvalue of negative control) × 100. [formula]

[1] = target: T2, purified LasB protein from P. aeruginosa (Pseudomonas aeruginosa, UniProt P14756); assay: Fluorometric assay to determine Ki (Abz-Ala-Gly-Leu-Ala-p-Nitro-Benzyl-Amide substrate); assay type: biochemical
T2 construct: purchased Merck or Charles River Laboratories
Experimental: as §1
This assay uses commercially available substrate (Abz-Ala-Gly-Leu-Ala-p-Nitro-Benzyl-Amide (Ex: 340 nm, Em: 415 nm) from Peptide International) and purified LasB protein from P. aeruginosa (provided by Merck or Charles River Laboratories). It is performed to determine LasB elastase activity and assess compound inhibition in 96-well plate format. All compounds of Formula (I) were assessed using the method described below.
Method: 10 to 140 ng/ml purified LasB is incubated with 250 µM Abz-Ala-Gly-Leu-Ala-p-Nitro-Benzyl-Amide in 50 mM Tris-HCl pH 7.4, 2.5 mM CaCl2, 0.01% of Triton X100 at 37°C. LasB activity (corresponding to fluorescence emission induced by substrate hydrolysis) is measured over 30 min at 37°C with a fluorescence plate reader such as the Perkin Elmer Envision or similar. Different range of inhibitor concentrations are routinely assessed depending of inhibitor potency from 0.0016 to 200 µM (2-fold dilutions series) in order to determine IC50.
The equation used to calculate the Ki from IC50 is: Ki = IC50 / (1+([S]/Km)) where [S] = 250 µM and Km = 214 µM.

T2 sequence (P14756 198-498): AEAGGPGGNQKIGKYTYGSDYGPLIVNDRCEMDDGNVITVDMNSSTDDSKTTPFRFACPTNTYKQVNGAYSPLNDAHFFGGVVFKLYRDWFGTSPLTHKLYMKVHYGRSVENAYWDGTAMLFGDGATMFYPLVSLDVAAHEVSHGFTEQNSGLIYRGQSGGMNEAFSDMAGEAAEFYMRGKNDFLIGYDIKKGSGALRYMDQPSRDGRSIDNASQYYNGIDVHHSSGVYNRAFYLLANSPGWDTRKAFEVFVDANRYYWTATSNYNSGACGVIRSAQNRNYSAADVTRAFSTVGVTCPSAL
T1 sequence (P14756 198-498): as above

SMILES	inhibition at 25 µM (LasB) [%]	Ki [1] [nM]	Ki ([1]; Ki calculated from IC50, [S] = 250 µM, Km = 214 µM, 37°C, pH 7.4) [nM]
O=C(O)CC1(C(=O)NCc2ncc(-c3ccccc3)s2)Cc2ccccc2C1 [Example 2, 2-[2-[(5-phenylthiazol-2-yl)methylcarbamoyl]indan-2-yl]acetic acid]	10 to 60	200 to 10000	–
O=C(O)CC1(C(=O)NCc2nc(-c3ccccc3)cs2)Cc2cc(F)c(F)cc2C1 [Example 3, 2-[5,6-difluoro-2-[(4-phenylthiazol-2-yl)methylcarbamoyl]indan-2-yl]acetic acid]	> 75	< 50	–
COc1cccc(-c2csc(CNC(=O)C3(CC(=O)O)Cc4ccccc4C3)n2)c1 [Example 5, 2-[2-[[4-(3-methoxyphenyl)thiazol-2-yl]methylcarbamoyl]indan-2-yl]acetic acid]	60 to 75	50 to 200	–
COc1ccc(-c2csc(CNC(=O)C3(CC(=O)O)Cc4ccccc4C3)n2)cc1 [Example 6, 2-[2-[[4-(4-methoxyphenyl)thiazol-2-yl]methylcarbamoyl]indan-2-yl]acetic acid]	> 75	50 to 200	–
O=C(O)CC1(C(=O)NCc2nc(-c3ccc(Cl)cc3)cs2)Cc2ccccc2C1 [Example 7, 2-[2-[[4-(4-chlorophenyl)thiazol-2-yl]methylcarbamoyl]indan-2-yl]acetic acid]	60 to 75	50 to 200	–
O=C(O)CC1(C(=O)NCc2nc(-c3cccnc3)cs2)Cc2ccccc2C1 [Example 8, 2-[2-[[4-(3-pyridyl)thiazol-2-yl]methylcarbamoyl]indan-2-yl]acetic acid]	60 to 75	50 to 200	–
O=C(O)CC1(C(=O)NCc2nc(-c3ccccn3)cs2)Cc2ccccc2C1 [Example 9, 2-[2-[[4-(2-pyridyl)thiazol-2-yl]methylcarbamoyl]indan-2-yl]acetic acid]	60 to 75	200 to 10000	–
O=C(O)CC1(C(=O)NCc2nc(-c3ccccc3O)cs2)Cc2ccccc2C1 [Example 10, 2-[2-[[4-(2-hydroxyphenyl)thiazol-2-yl]methylcarbamoyl]indan-2-yl]acetic acid]	10 to 60	50 to 200	–
O=C(O)CC1(C(=O)NCc2nc(-c3ccc(O)cc3)cs2)Cc2ccccc2C1 [Example 11, 2-[2-[[4-(4-hydroxyphenyl)thiazol-2-yl]methylcarbamoyl]indan-2-yl]acetic acid]	60 to 75	50 to 200	–
O=C(O)CC1(C(=O)NCc2nc(-c3cccc(O)c3)cs2)Cc2ccccc2C1 [Example 12, 2-[2-[[4-(3-hydroxyphenyl)thiazol-2-yl]methylcarbamoyl]indan-2-yl]acetic acid]	60 to 75	50 to 200	–
O=C(O)CC1(C(=O)NCc2nc(-c3ccccc3OCCO)cs2)Cc2ccccc2C1 [Example 13, 2-[2-[[4-[2-(2-hydroxyethoxy)phenyl]thiazol-2-yl]methylcarbamoyl]indan-2-yl]acetic acid]	60 to 75	50 to 200	–
NCCOc1ccccc1-c1csc(CNC(=O)C2(CC(=O)O)Cc3ccccc3C2)n1 [Example 14, 2-[2-[[4-[2-(2-aminoethoxy)phenyl]thiazol-2-yl]methylcarbamoyl]indan-2-yl]acetic acid]	10 to 60	200 to 10000	–
CN(C)CCNC(=O)c1ccc(-c2csc(CNC(=O)C3(CC(=O)O)Cc4ccccc4C3)n2)cc1 [Example 15, 2-[2-[[4-[4-[2-(dimethylamino)ethylcarbamoyl]phenyl]thiazol-2-yl]methylcarbamoyl]indan-2-yl]acetic acid]	60 to 75	200 to 10000	–
CN1CCN(C(=O)c2ccc(-c3csc(CNC(=O)C4(CC(=O)O)Cc5ccccc5C4)n3)cc2)CC1 [Example 16, 2-[2-[[4-[4-(4-methylpiperazine-1-carbonyl)phenyl]thiazol-2-yl]methylcarbamoyl]indan-2-yl]acetic acid]	60 to 75	200 to 10000	–
CN(C)[C@@H]1CCN(C(=O)c2ccc(-c3csc(CNC(=O)C4(CC(=O)O)Cc5ccccc5C4)n3)cc2)C1 [Example 19, 2-[2-[[4-[4-[(3R)-3-(dimethylamino)pyrrolidine-1-carbonyl]phenyl]thiazol-2-yl]methylcarbamoyl]indan-2-yl]acetic acid]	60 to 75	200 to 10000	–
CN(C)C1CN(C(=O)c2ccc(-c3csc(CNC(=O)C4(CC(=O)O)Cc5ccccc5C4)n3)cc2)C1 [Example 20, 2-[2-[[4-[4-[3-(dimethylamino)azetidine-1-carbonyl]phenyl]thiazol-2-yl]methylcarbamoyl]indan-2-yl]acetic acid]	60 to 75	200 to 10000	–
CN1CCN(C(=O)c2cccc(-c3csc(CNC(=O)C4(CC(=O)O)Cc5ccccc5C4)n3)c2)CC1 [Example 23, 2-[2-[[4-[3-(4-methylpiperazine-1-carbonyl)phenyl]thiazol-2-yl]methylcarbamoyl]indan-2-yl]acetic acid]	60 to 75	200 to 10000	–
CN1CCN(c2ccc(-c3csc(CNC(=O)C4(CC(=O)O)Cc5ccccc5C4)n3)cc2)CC1 [Example 26, 2-[2-[[4-[4-(4-methylpiperazin-1-yl)phenyl]thiazol-2-yl]methylcarbamoyl]indan-2-yl]acetic acid]	60 to 75	50 to 200	–
CN(C)C1CN(c2ccc(-c3csc(CNC(=O)C4(CC(=O)O)Cc5ccccc5C4)n3)cc2)C1 [Example 27]	60 to 75	–	50 to 200
CN1CCN(c2cccc(-c3csc(CNC(=O)C4(CC(=O)O)Cc5ccccc5C4)n3)c2)CC1 [Example 28, 2-[2-[[4-[3-(4-methylpiperazin-1-yl)phenyl]thiazol-2-yl]methylcarbamoyl]indan-2-yl]acetic acid]	60 to 75	200 to 10000	–
CN1C[C@@H]2CN(c3ccc(-c4csc(CNC(=O)C5(CC(=O)O)Cc6ccccc6C5)n4)cc3)C[C@@H]2C1 [Example 30, 2-[2-[[4-[4-[(3aS,6aR)-2-methyl-1,3,3a,4,6,6a-hexahydropyrrolo[3,4-c]pyrrol-5-yl]phenyl]thiazol-2-yl]methylcarbamoyl]indan-2-yl]acetic acid]	10 to 60	200 to 10000	–
COc1cc(N2CCN(C)CC2)ccc1-c1csc(CNC(=O)C2(CC(=O)O)Cc3ccccc3C2)n1 [Example 31, 2-[2-[[4-[2-methoxy-4-(4-methylpiperazin-1-yl)phenyl]thiazol-2-yl]methylcarbamoyl]indan-2-yl]acetic acid]	60 to 75	50 to 200	–
COc1cc(N2CC(N(C)C)C2)ccc1-c1csc(CNC(=O)C2(CC(=O)O)Cc3ccccc3C2)n1 [Example 32, 2-[2-[[4-[4-[3-(dimethylamino)azetidin-1-yl]-2-methoxy-phenyl]thiazol-2-yl]methylcarbamoyl]indan-2-yl]acetic acid]	> 75	50 to 200	–
CN1CCN(c2ccc(-c3csc(CNC(=O)C4(CC(=O)O)Cc5ccccc5C4)n3)cn2)CC1 [Example 34, 2-[2-[[4-[6-(4-methylpiperazin-1-yl)-3-pyridyl]thiazol-2-yl]methylcarbamoyl]indan-2-yl]acetic acid]	60 to 75	50 to 200	–
CN(C)C1CN(c2ccc(-c3csc(CNC(=O)C4(CC(=O)O)Cc5ccccc5C4)n3)cn2)C1 [Example 35, 2-[2-[[4-[6-[3-(dimethylamino)azetidin-1-yl]-3-pyridyl]thiazol-2-yl]methylcarbamoyl]indan-2-yl]acetic acid]	60 to 75	50 to 200	–

— patent EP3628672A1 (priority 2018, dated 2020)
